Measured values reported in PubChem BioAssay (NCI).
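All cell lines were grown in 96-well plates and treated with compound for 48 hours. TGI denotes the concentration required for complete inhibition of growth.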

Tests used:
Test in all cases: NCI-60 cell line screen, 48 h
CCRF-CEM leukemia = system: CCRF-CEM leukemia
IGROV1 ovarian = system: IGROV1 ovarian
NCI-H522 lung = system: NCI-H522 lung
UACC-62 melanoma = system: UACC-62 melanoma
OVCAR-3 ovarian = system: OVCAR-3 ovarian
KM12 colon = system: KM12 colon
EKVX NSCLC = system: EKVX NSCLC
SK-MEL-28 melanoma = system: SK-MEL-28 melanoma
HCC-2998 colon = system: HCC-2998 colon
SW-620 colon = system: SW-620 colon
HT29 colon = system: HT29 colon
MOLT-4 leukemia = system: MOLT-4 leukemia
SR leukemia = system: SR leukemia
HOP-62 NSCLC = system: HOP-62 NSCLC
OVCAR-4 ovarian = system: OVCAR-4 ovarian
SF-268 CNS = system: SF-268 CNS
NCI-H460 lung = system: NCI-H460 lung
M14 melanoma = system: M14 melanoma
K-562 leukemia = system: K-562 leukemia
COLO 205 colon = system: COLO 205 colon

Question: Which TGI (CCRF-CEM leukemia) does the source give for `Cc1cc2n([O-])cccc-2[n+](=O)c1` here?
Answer: > 100 µM

Question: What about the TGI (IGROV1 ovarian) of the same compound?
Answer: > 100 µM

Question: What about the TGI (NCI-H522 lung) of the same compound?
Answer: > 100 µM

Question: And the TGI (UACC-62 melanoma)?
Answer: > 100 µM

Question: What about the TGI (OVCAR-3 ovarian) of the same compound?
Answer: > 100 µM

Question: What about the TGI (KM12 colon) of the same compound?
Answer: > 100 µM

Question: What about the TGI (EKVX NSCLC) of the same compound?
Answer: > 100 µM

Question: What about the TGI (SK-MEL-28 melanoma) of the same compound?
Answer: > 100 µM

Question: What about the TGI (HCC-2998 colon) of the same compound?
Answer: > 100 µM

Question: And the TGI (SW-620 colon)?
Answer: > 100 µM

Question: What about the TGI (HT29 colon) of the same compound?
Answer: > 100 µM

Question: What about the TGI (MOLT-4 leukemia) of the same compound?
Answer: > 100 µM

Question: What about the TGI (SR leukemia) of the same compound?
Answer: > 100 µM

Question: And the TGI (HOP-62 NSCLC)?
Answer: > 100 µM

Question: What about the TGI (OVCAR-4 ovarian) of the same compound?
Answer: > 100 µM

Question: And the TGI (SF-268 CNS)?
Answer: > 100 µM

Question: What about the TGI (NCI-H460 lung) of the same compound?
Answer: > 100 µM

Question: What about the TGI (M14 melanoma) of the same compound?
Answer: > 100 µM

Question: And the TGI (K-562 leukemia)?
Answer: > 100 µM

Question: What about the TGI (COLO 205 colon) of the same compound?
Answer: > 100 µM

Question: For `COc1ccc(-c2c3ccccc3c(-c3ccc(OCCCCCBr)cc3)c3ccccc23)cc1`, which TGI (CCRF-CEM leukemia) is on record?
Answer: > 100 µM

Question: What about the TGI (IGROV1 ovarian) of the same compound?
Answer: > 100 µM

Question: What about the TGI (NCI-H522 lung) of the same compound?
Answer: > 100 µM

Question: What about the TGI (UACC-62 melanoma) of the same compound?
Answer: > 100 µM

Question: What about the TGI (OVCAR-3 ovarian) of the same compound?
Answer: > 100 µM

Question: What about the TGI (KM12 colon) of the same compound?
Answer: > 100 µM

Question: And the TGI (EKVX NSCLC)?
Answer: > 100 µM

Question: And the TGI (SK-MEL-28 melanoma)?
Answer: > 100 µM

Question: What about the TGI (HCC-2998 colon) of the same compound?
Answer: > 100 µM

Question: And the TGI (SW-620 colon)?
Answer: > 100 µM

Question: What about the TGI (HT29 colon) of the same compound?
Answer: > 100 µM

Question: What about the TGI (MOLT-4 leukemia) of the same compound?
Answer: > 100 µM

Question: What about the TGI (SR leukemia) of the same compound?
Answer: > 100 µM

Question: What about the TGI (HOP-62 NSCLC) of the same compound?
Answer: > 100 µM

Question: What about the TGI (OVCAR-4 ovarian) of the same compound?
Answer: > 100 µM

Question: And the TGI (SF-268 CNS)?
Answer: > 100 µM

Question: What about the TGI (NCI-H460 lung) of the same compound?
Answer: > 100 µM

Question: And the TGI (M14 melanoma)?
Answer: > 100 µM

Question: What about the TGI (K-562 leukemia) of the same compound?
Answer: > 100 µM

Question: What about the TGI (COLO 205 colon) of the same compound?
Answer: > 100 µM

Question: Which results are given for `COc1cc2cc(C(=O)N3CC(CCl)c4c3cc([N+](C)(C)Cc3ccc([N+](=O)[O-])n3C)c3ccccc43)[nH]c2c(OC)c1OC` (stereo not given)?
Answer: TGI (CCRF-CEM leukemia): 18.6 µM; TGI (IGROV1 ovarian): 4.23 µM; TGI (NCI-H522 lung): 0.981 µM; TGI (UACC-62 melanoma): 3.14 µM; TGI (OVCAR-3 ovarian): > 100 µM; TGI (KM12 colon): > 23.8 µM; TGI (EKVX NSCLC): 16.4 µM; TGI (SK-MEL-28 melanoma): 9.11 µM; TGI (HCC-2998 colon): 2.48 µM; TGI (SW-620 colon): > 100 µM; TGI (HT29 colon): > 100 µM; TGI (MOLT-4 leukemia): 16 µM; TGI (SR leukemia): 2.29 µM; TGI (HOP-62 NSCLC): > 100 µM; TGI (OVCAR-4 ovarian): 6.35 µM; TGI (SF-268 CNS): > 100 µM; TGI (NCI-H460 lung): 5.41 µM; TGI (M14 melanoma): > 48 µM; TGI (K-562 leukemia): > 100 µM; TGI (COLO 205 colon): 7.36 µM
